Here are results for one substance from US10272096B2, “Methods and systems of treating wounds” (priority 2013, dated 2019).

One assay deals with Erk1/2. Description: Western blot analysis of phospho-Erk1/2 in U2OS cells. The format is cell-based, human. How it is done: Cells were lysed and harvested 10 min after LLLT treatment in Laemmli buffer heated to 100° C. (BioRad, Hercules, Calif.), and lysates were sonicated and resolved on SDS-PAGE gels. The proteins were transferred to a nitrocellulose membrane (GE Healthcare Life Sciences, Pittsburgh) and blocked for 1 h with Pierce Protein-Free Blocking buffer (Thermo Scientific, Rockford, Ill.). They were incubated overnight with antibodies for phospho-ERK1/2(Thr202/Tyr203) at 1:10,000 in TBS/5% BSA (Cell Signaling Technology). Membranes were then incubated with an anti-rabbit-HRP antibody at 1:2000 for 1 h and developed using a luminol-based chemiluminescent substrate.
On the technique in general: Immunoblotting shows a protein as a band on a membrane.

For a further assay, the system named is A-549 cells. Kind of assay: Mechanical scratch wound assay in A-549 cell monolayer. The format is cell-based. How it is done:
(A) Mechanical scratch wounds were generated in a monolayer of A-549 cells, and 30 hours later, the area of the wound was evaluated by custom computer-based software. At 0, 4, 9, and 24 hour post wounding, cells received fresh medium with 5 uM of NO-Cbl, Deta-NONOate, sodium nitroprusside (SNP), or fresh medium alone. (B) The normalized average wound area was determined by dividing the final wound area by the initial wound area and averaging replicates. Data represent the mean+/−SEM of at least 3 separate experiments with an n=12 in each experiment.

For assay [1], the system named is lung epithelial cells, primary human lung fibroblasts, cancer cell model. Description: In vitro wound healing in several different cell systems. The format is cell-based. From the text: . The inventors established this optimal dose range in order to provide a reasonable dose for actual treatment of airway injury. Mechanistically, the inventors determined that improved wound healing was from increased cell migration and not cell proliferation (division). […]

The subject of the next assay is U2OS cells. The format is cell-based, human.

As for nitrosyl-cobinamide [NO-Cbi], in the assay with Erk1/2, the “Erk1/2 activation (phosphorylation)” value is listed as “increased Erk1/2 activation” and the “Erk1/2 activation, combination with LLLT” value is on record as “same degree of Erk1/2 activation as NO-Cbi alone”. In addition, in the assay with A-549 cells, the “effectiveness on a molar basis compared with other NO donors” value is given as “more effective than two other NO donors”; the “wound healing and migration (normalized wound area)” value was “increases wound healing and migration”. The “in vitro wound healing” value in assay [1] was “improved in vitro wound healing”. In addition, in the assay on U2OS cells, the “wound healing (normalized wound area at 24 h)” value is “enhance wound healing” and the “wound healing, combination with LLLT” value is recorded as “markedly enhanced wound healing compared to either treatment alone”.
